Consider one substance from publication PMC8406304, “Inhibiting Type VI Secretion System Activity with a Biomimetic Peptide Designed To Target the Baseplate Wedge Complex” (mBio, 2021).

Values joined by “and” are separate entries in the source; they are usually repeats but may differ in a detail not shown here. Equal values may be shown once. “Also recorded” adds a separate entry of the source.

One data set deals with EAEC. The data set can be described thus: Bacterial growth / toxicity of the peptide. It is filed as cell-based, enteroaggregative Escherichia coli (EAEC). To be noted: up to 1 mM, EAEC TssK-GFP in SIM medium, OD at 600 nm; biological triplicates.
The next data set has as its system TssK. The data set can be described thus: Isothermal titration calorimetry (ITC), TssK-WT. It counts as binding, enteroaggregative Escherichia coli (EAEC). To be noted: 25°C. As for the experimental part:
To evaluate the direct interaction between the BCP and its target TssK, we performed isothermal titration calorimetry (ITC) experiments. The wild-type BCP and TssK interact with an observable affinity (KD) of 60 μM (Fig. 5A).
The working buffer for both proteins and peptide was 50 mM HEPES (pH 7.0), 150 mM NaCl to avoid buffer mismatch. The experiments were performed at 25°C using the MicroCal PEAQ-ITC instrument (Malvern Panalyticals, Malvern, UK) in duplicate with 19 injections, first with an initial injection of 0.4 μl followed by 18 injections of 2 μl. Two assays were performed. In the first, 25 μM WT TssK ligand was in the cell and 1 mM WT BCP analyte was in the syringe. In the second, 25 μM TssK L14A ligand was in the cell and 1 mM WT BCP analyte was in the syringe. The reaction was performed with a constant stirring speed of 750 rpm; each injection lasted for 4 s with a 150-s space between injections. A constant heat control (offset) was removed from the raw data to account for heat dilution before integration. The data were fitted using the One Set of Sites model in the PEAQ-ITC analysis software.
(In ITC the heat of successive injections is recorded.)

Data set [1] concerns TssK-sfGFP foci in EAEC (assembled baseplates). It is filed as cell-based, enteroaggregative Escherichia coli (EAEC). As for the experimental part:
Fluorescence microscopy experiments were performed as previously described ([97], [98]). An overnight culture in LB of EAEC strain with a chromosomal GFP fusion to TssK was diluted 1/200 in SIM medium and grown at 37°C until the culture reached an A600 of ∼0.8. Ten optical density units (ODU) was pelleted for 10 min at 3,500 × g, resuspended at 1 ODU/ml in the same SIM medium supplemented with 0.8 M NaCl, and equilibrated for 1 h at room temperature. Cells were pelleted for 10 min at 3,500 × g, resuspended in 100 μl of classical SIM without NaCl supplemented with 1 mM peptide of buffer, and incubated for 20 min at room temperature. Cells were diluted in classical SIM medium at 0.4 ODU/ml and incubated at 37°C 160 rpm until the absorbance again reached ∼0.8. Ten ODU was harvested and resuspended in fresh SIM medium. Cell mixtures were spotted on a thin pad of SIM medium supplemented with 2% agarose, covered with a coverslip, and incubated for 20 to 30 min at room temperature before microscopy acquisition. Fluorescence microscopy was performed with a Nikon Eclipse Ti2 microscope equipped with a 100× objective (numerical aperture, 1.45), an Orca-Fusion digital camera (Hamamatsu), and a perfect focus system (PFS) to automatically maintain focus so that the point of interest within a specimen is kept in sharp focus at all times despite mechanical or thermal perturbations. All fluorescence images were acquired in Hilo mode using an Ilas2 TIRF module (Gataca Systems). Exposure times were typically 100 ms for phase contrast and 100 ms using the GFP channel. For image treatment, noise and background were reduced by filtering large structures down to 40 pixels in the FFT Bandpass Filter function of ImageJ ([102]). The GFP foci were automatically detected using the MicrobeJ plugin ([103]).

Data set [2] relates to TssK-TssFGE (TssKFGE wedge complex). The data set can be described thus: Biolayer interferometry (BLI), TssFGE binding to biotinylated TssK. It counts as biochemical, enteroaggregative Escherichia coli (EAEC). The procedure:
Streptavidin-tagged TssK was purified as described above. The TssK trimer was further polished by size exclusion chromatography using a Superose 6 10/300 GL (GE Healthcare) in 50 mM HEPES (pH 7.0), 150 mM NaCl at 0.25 ml/min. For biolayer interferometry (BLI) experiments, we used high-precision Strep (SAX) biosensors from Forté Bio (number 18-5117) on the BLItz machine (Forté Bio). The trimeric ligand TssK was biotinylated using equimolar N-hydroxysuccinimide (NHS)–polyethylene glycol 4 (PEG4)–biotin (Pierce EZ-Link; 21330) in 50 mM HEPES (pH 7.0), NaCl 150 mM for 1 h at room temperature before buffer exchange in CentriPure P2 (Generon; IRL) columns against 50 mM HEPES (pH 7.0), NaCl 150 mM to remove the excess biotin. BL21(DE3) cells were used to express the interacting analytes TssG-TssF-TssE. In addition, cells containing an empty plasmid were used as a control. Cells were broken as described above, and the clarified supernatants after centrifugation for 30 min at 20,000 × g contained the control and TssFGE lysate. Streptavidin biosensors were hydrated for 10 min in HEPES buffer before binding of the biotinylated TssK. Biotinylated TssK was loaded at 1.2 μM onto the SAX biosensors for 120 s, and then the excess TssK was dissociated in HEPES buffer for 120 s. For the remaining kinetic assays, we used kinetic buffer (PBS [pH 7.3] plus 0.02% Tween 20, 0.1% bovine serum albumin [BSA], 0.05% sodium azide) (Forté Bio number 18-5032) with orbital shaking at 2,200 rpm. Kinetic buffer (KB) was used to dilute the lysates and the peptide to decrease nonspecific signals. The unbound Strep sites were blocked with 2 μM control lysate for 120 s and washed with KB for 120 s. The kinetic assays were performed using three steps with different times: baseline, 30 s; association, 120 s; and dissociation, 120 s. All the following assays were performed in triplicate. […] In the first assay, we added 47 μM lysate expressing the analytes TssG, TssF, and TssE to the bound TssK. In the second assay, we added 1 mM wild-type (WT) BCP to the bound TssK before adding 47 μM TssF-TssG-TssE. In the third assay, to validate the specificity of the WT BCP we added 1 mM mutant BCP that lacks the binding residues to the bound TssK before adding 47 μM TssF-TssG-TssE. Last, to redemonstrate the specificity of the BCP-WT, we added 1 mM randomized BCP that contains the binding residues but out of order to the bound TssK before adding 47 μM TssF-TssG-TssE.

Broadly, the Kd is a measure of binding affinity in units of concentration. For the substance “SRPVMG-SRPVMG-SRPVMG (head to tail) [BCP, biomimetic cyclic peptide SRPVMG-SRPVMG-SRPVMG mimicking TssG foot 1]”, the toxicity for bacteria result in the data set with EAEC is reported as “not toxic for bacteria up to 1 mM; also recorded: no impact on the growth of EAEC”. Moreover, the “ITC binding signature: enthalpy / ΔG” value with TssK (ITC signature plot, TssK-WT with BCP, pH 7.0) was “driven by a favorable enthalpy; also recorded: enthalpy-driven interaction with a favorable ΔG”. Also, the dissociation constant (Kd) at TssK (ITC, 25 μM TssK-WT in cell, 1 mM BCP in syringe, 50 mM HEPES pH 7.0, 150 mM NaCl, duplicate, One Set of Sites fit, read-out: observable affinity (KD)) was determined as 60 µM. For the same substance, the “time of maximum effect after peptide entry” value in data set [1] (1 mM) is on record as “within the first hour after peptide entry”. Moreover, in data set [1] (1 mM peptide, hypo-osmotic shock (osmoporation), vs peptide-free treated cells, ∼500 cells per condition, triplicate), the “increase in proportion of bacteria with no observable TssK-sfGFP foci” value is about 30%. Besides, the “number of fluorescent TssK-sfGFP foci” value in data set [1] (1 mM peptide, hypo-osmotic shock, in words, ∼500 cells per condition, triplicate) is listed as “decreased TssK-sfGFP foci compared to both control peptides”. The “TssK-GFP foci without osmotic shock” value in data set [1] (BCP, cells without osmotic shock, compared to cells without peptide) is reported as “comparable to those without peptide”. In data set [1] (EAEC TssK-GFP, SIM medium, NaCl-induced hypo-osmotic shock), the “requirement of hypo-osmotic shock for entry into cells” value is “mandatory for BCP entry into cells”. For the same substance, the “TssFGE binding response over time in the presence of the BCP” value in data set [2] (BLI sensogram, control lysate signal (50 μM TssFGE lysate without bound TssK) subtracted, three independent experiments) is recorded as “decreasing binding response over time”. In addition, the “maximum binding average response of TssFGE to TssK at 150 s in presence of peptide” value in data set [2] (BLI, 47 μM TssFGE lysate, TssK preincubated with 1 mM peptide, kinetic buffer pH 7.3, mean ± SD of three independent assays, listed as wild-type BCP) is 0.121 ± 0.010 nm and 0.121 ± 0.0102 nm. Besides, in data set [2] (BLI, 1 mM peptide, in words), the “interference with TssKFGE formation” value is “significatively interferes with the TssKFGE formation”.
